Results as given in US12716077B2, “Fermentative production of isoprenoids” (DSM IP ASSETS B.V., priority 2020, dated 2026).

Key:
[1] = Density and viscosity in dependence of the solvent used as 2nd phase; type: physicochemical
Method: The performance of said 2nd phases were tested with regards to growth, loss (consumption, evaporation or other ways of disappearance) of the solvents during the fermentation and the density and viscosity of the cultivation medium, wherein the test was carried out after 4 days of growth period.

[2] = Loss (consumption, evaporation or other disappearance) of the 2nd phase solvent during the fermentation; parameters: species or system Yarrowia lipolytica; conditions: loss of initial solvent volume, shake plate assay, after 4 days of growth period
Excerpt: As used herein, the term “not disappearing” in connection with the second phase solvents as defined herein means that the same amount of solvent present at the start of the fermentation is still detectable at the end of the fermentation process. A loss or disappearance of solvent might be due to e.g. consumption by the host cell and/or evaporation during the fermentation. The terms “loss” or “disappearance” are used interchangeably herein. Such solvent as used for the process of the present invention is also called a “stable” solvent. Thus, a stable solvent according to the present invention means a loss or disappearance of the solvent during the fermentation in the range of about 20% or less, e.g. in the range of about 20, 15, 10, 8, 5, 3, 2, 1% or even no loss or disappearance of the solvent during the fermentation.
Shake plate assay. Typically, 200 μl of 0.25% yeast extract, 0.5% peptone (0.25X YP) is inoculated with 10 μl of freshly grown Yarrowia and overlaid with 200 μl of solvent. Candida rugosa Lipase (Creative enzymes) was resuspended in PBS and added to the growth media when the carbon source was 2% corn oil. […] The second phase (Drakeol 5, or others listed in table 6) fraction was removed from the shake plate wells and analyzed by UPLC on a normal phase column and/or C4 HPLC, with a photo-diode array detector (see details below). […]

Density [1]: 0.75 g/mL | Viscosity ([1]; measured at 20° C.): 1.34 | Loss [2]: 100% | Loss ([2]; listed as n-dodecane): completely disappeared
Structure (SMILES): CCCCCCCCCCCC [dode, n-dodecane]
